Measured values published in US11377429B2, “Benzothia(di)azepine compounds and their use as bile acid modulators” (Albireo AB, priority 2020, dated 2022).

Test: Bidirectional permeability assay (Caco-2 cells)
Assay type: in vitro ADME
Conditions: human, pH 7.4, Caco-2, absorptive direction (A2B)
Procedure: Bidirectional Permeability Assay (Caco-2 Cells)
Caco-2 cells (Evotec) were seeded at a density of 70,000 cells/well in Millicell® 24-well cell culture insert plates and maintained in an incubator (37° C., 5% CO2, 95% RH) for 21 days with media change on alternate days.
Stock solutions (10 mM) of the test compounds, atenolol (low permeability marker), propranolol (high permeability marker) and digoxin (substrate for P-gp transport pathway) were prepared in dimethylsulfoxide (DMSO). An intermediate stock solution (1 mM) was prepared by diluting 10 μL of 10 mM master stock solution with 90 μL of neat DMSO. A working stock solution (10 μM) was prepared by diluting 50 μL of 1 mM with 4950 μL of FaSSIF buffer. […]
On the day of assay, Caco-2 monolayers were washed twice with transport buffer (HBSS, pH 7.4) and pre-incubated for 30 min (37° C., 5% CO2, 95% RH) in an incubator. The electrical resistance of the monolayers was measured with a Millicell®-ERS system. […]
Samples were vortexed and centrifuged at 4000 rpm for 10 minutes. […] The concentration of compounds in the samples was analyzed by liquid chromatography tandem mass spectrometry (LC-MS/MS) method using discovery grade bio-analytical method, as applicable.
The mean apparent permeability (Papp, ×10^−6 cm/sec) of the test compounds, atenolol, propranolol and digoxin were calculated as follows: […]

Q: Which Papp A→B at 120 min, 10 µM does the source give for CCCCC1(C)CN(c2ccc(F)cc2)c2cc(SC)c(OCC(O)C(=O)O)cc2S(=O)(=O)C1 (single isomer, unassigned) [1, diastereomer 1] here?
A: Its Papp A→B at 120 min, 10 µM is 2.2 ×10⁻⁶ cm/s.
